Reference: patent US11078188B2, “Dihydroquinoxaline bromodomain recognition protein inhibitor, preparation method and use thereof” (SHANGHAI INSTITUTE OF MATERIA MEDICA, CHINESE ACADEMY OF …, priority 2017, dated 2021)

How the values were obtained:
BRD4 (I) = BRD4 (I) (Homo sapiens (Human), UniProt O60885); test: Fluorescence anisotropy (FA) binding test on BRD4 (I); conditions: BRD4 (I) 10 nM, fluorescent (+)-JQ1 substrate 5 nM, read-out: BRD4 (1) IC50
[1] = system: human myeloma cells MM.1S; test: MM.1S cell viability, CCK-8 method; format: cell-based; conditions: for IC50: 72 h treatment, CCK-8; for inhibitory activity against the MM.1S cell line (in words): compared with positive (+)-JQ1
Procedure: The MM.1S cell line was tested for cell viability. The test methods were as follows: human myeloma cells MM.1S were treated with compound for 72 h, and the proliferation inhibition effect and degree of the compound were detected by CCK-8 method.

[2] = Metabolic stability in human liver microsomes; format: in vitro ADME; conditions: human liver microsomes 0.5 mg/ml, 1 μM compound, NADPH
Procedure: The system which was 150 μl of human liver microsomes (final concentration: 0.5 mg/ml) was used for metabolic stability incubation. The system contained reduced coenzyme II (NADPH) (final concentration: 1 mM) and 1 μM compound, positive control or negative control. The reaction was terminated with acetonitrile containing (imiprozine, batch number: 3221; tinidazole, given) at 0 min, 5 min, 10 min, and 30 min, respectively. The mixture was vortexed for 10 min, centrifuged at 15000 rpm for 10 min, and 50 μl of the supernatant was injected into a 96-well plate. The metabolic stability of the compound was calculated by measuring the relative reduction in the original medicament.
HLM Clint (μl/min/mg) refers to the clearance rate of compounds in human liver microsomes having a unit of μl/min/mg; mLM Clint (μl/min/mg) refers to the clearance rate of compounds in mouse liver microsomes having a unit of μl/min/mg; HLM t1/2 (min) refers to the half-life of the compound in human liver microsomes having a unit of minutes; mLM t1/2 (min) refers to the half-life of the compound in mouse liver microsomes having a unit of minutes. TDI means that the mechanism inhibition test of compounds on CYP enzyme evaluates whether the compound has time-dependent inhibition of the enzyme.

[3] = Metabolic stability in mouse liver microsomes; format: in vitro ADME
3A4 = 3A4 (Homo sapiens (Human), UniProt P08684); test: Direct inhibition test (DI test), CYP 3A4; format: in vitro ADME; conditions: human liver microsomes 0.2 mg/ml, 20 min; for Direct inhibition rate (%) 3A4, second value: second of two values a/b (two 3A4 probes midazolam, testosterone; assignment not given)
3A4, sequence (P08684 whole entry): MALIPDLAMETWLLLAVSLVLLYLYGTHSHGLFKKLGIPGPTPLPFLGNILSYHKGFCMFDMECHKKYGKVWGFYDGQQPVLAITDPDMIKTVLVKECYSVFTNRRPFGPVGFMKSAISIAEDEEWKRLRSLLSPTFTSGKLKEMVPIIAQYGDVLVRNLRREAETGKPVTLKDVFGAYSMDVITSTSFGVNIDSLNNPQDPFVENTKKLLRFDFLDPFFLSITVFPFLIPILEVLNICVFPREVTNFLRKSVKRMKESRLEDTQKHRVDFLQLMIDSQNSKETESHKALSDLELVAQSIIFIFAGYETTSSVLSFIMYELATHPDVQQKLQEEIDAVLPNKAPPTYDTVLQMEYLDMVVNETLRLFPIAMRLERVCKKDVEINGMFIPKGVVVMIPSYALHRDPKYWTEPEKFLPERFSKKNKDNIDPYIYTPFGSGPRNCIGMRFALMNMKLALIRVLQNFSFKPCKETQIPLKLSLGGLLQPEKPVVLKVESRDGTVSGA
Procedure: The system which was 100 μl of human liver microsomes (final concentration: 0.2 mg/ml) was used for direct inhibition incubation. The system contained NADPH (final concentration: 1 mM), 10 μl compound, positive inhibitor cocktail (ketoconazole, 10 μl, quinidine 10 μl, sulfaphenazole 100 μl, naphthoflavone 10 μl, tranylcypromine 1000 μl), negative control 10 μl DMSO and mixed probe substrate (midazolam 10 μl, testosterone 100 μl, dextromethorphan 10 μl, diclofenac 20 μl, phenacetin 100 μl, mephenytoin 100 μl). The reaction was stopped after the system was incubated for 20 min. The relative activity of the enzyme was calculated by measuring the relative amount of production of the metabolite.

SMILES | IC50 (BRD4 (I)) | IC50 [1] | inhibitory activity against the MM.1S cell line (in words) [1] | HLM Clint [2] | HLM t1/2 [2] | MLM t1/2 [3] | mLM Clint [3] | Direct inhibition rate (%) 3A4, first value (3A4; first of two values a/b (two 3A4 probes midazolam, testosterone; assignment not given)) | Direct inhibition rate (%) 3A4, second value (3A4) | IC50 ([1]; Homo sapiens, MM1.S) | microsomal CLint at 1 μM ([2]; read-out: HLM Clint) | half-life at 1 μM ([2]; read-out: HLM t1/2) | half-life at 1 μM ([3]; read-out: half-lives in mouse liver microsomes) | microsomal CLint at 1 μM ([3]; read-out: mLM Clint)
Cc1ccc(-n2nc(C(=O)N3CCN(C)CC3)nc2-c2ccc3c(c2)N(C2CCCC2)[C@H](C)C(=O)N3C)cc1 [Example 6] | 6.5 nM | 13.6 ± 5.45 nM | better inhibitory activity against the MM.1S cell line than the positive (+)-JQ1 | 61 µL/min/mg | 23 min | 41 min | 34 µL/min/mg | 22% | 31% | – | – | – | – | –
Cc1ccc(-n2nc(C(=O)N3C[C@@H](C)N[C@@H](C)C3)nc2-c2ccc3c(c2)N(C2CCCC2)[C@H](C)C(=O)N3C)cc1 [Example 12] | 4.9 nM | – | better inhibitory activity against the MM.1S cell line than the positive (+)-JQ1 | – | – | – | – | – | 28% | 5.42 ± 1.14 nM | 52 µL/min/mg | 27 min | 193 min | 7 µL/min/mg
